Laboratory results taken from patent publication US20220011296A1, “DETERMINING TREATMENT RESPONSE IN SINGLE CELLS” (Dana-Farber Cancer Institute, Inc., priority 2018, published 2022).
Entries after “also recorded” stand apart in the source; their conditions may differ.

Columns and labels:
Type in all cases: cell-based, human
[1] = tested on: Recurrent Glioblastoma cells; experiment: Sample viability (Live/Dead), recurrent glioblastoma; conditions: 1 μM Abema, 3 days; vehicle 67%
Protocol: (§1) Primary Sample Handling. The six primary samples underwent the same protocol with regards to disassociation, recovery, and drugging; however, the exact timeline of each tissue varied slightly based on the amount of tissue and drug used (Table 1, below). After at least [culture time] in culture (with the exception of CNS lymphoma which was cultured for 24 hours), persistent red blood cells were removed with RBC lysis buffer (00-433-57, Thermo Fisher Scientific). The remaining cells were then dissociated with Accutase (A6964, Sigma-Aldrich) and further purified via demyelination (130-096-733, Miltenyi Biotec) with MS separation columns (130-042-201, Miltenyi Biotec), or debris removal (130-109-398, Miltenyi Biotec). The purified cells were plated in 6 or 24 well plates and allowed to recover in the well plate for [recovery time] before addition of the drug. After [drug duration] days, the samples were prepared for sSMR for drug response measurements by dissociation into a single-cell suspension using Accutase and gentle pipetting. Cells were resuspended at a concentration of 100,000 cells/mL in Neurocult NS-A (as prepared above) with the same concentration of drug or DMSO as their respective culture. Measurements for sample viability were determined (Table 2, below).

[2] = tested on: Breast Met cells; experiment: Sample viability (Live/Dead), breast metastasis; conditions: 3 days, vehicle 35%
Protocol: as §1

[3] = tested on: metastatic non-small-cell lung cancer cells (BT1443); experiment: sSMR buoyant mass and MAR measurement, lung metastasis (BT1443); conditions: carboplatin 100 μM, 72 h
Protocol: Patient-derived cells from six different types of brain tissues were assessed for drug sensitivity in the sSMR: non-tumor brain tissue from epilepsy surgery, glioblastoma, recurrent glioblastoma, breast metastasis, lung metastasis, and primary CNS lymphoma. Resected samples obtained with patient consent to research (Brigham and Women's Hospital, DF/HCC IRB-approved consent protocol 10-417) were enzymatically and physically dissociated using the Brain Tumor Dissociation Kit P (130-095-942, Miltenyi Biotec) and gentleMACS Dissociator (130-093-235, Miltenyi Biotec). […]
Primary Sample Handling. […] Measurements for sample viability were determined (Table 2, below).
Measurements were obtained from […] types of primary patient sample types, including: non-tumor brain tissue resected for a non-tumor condition (FIGS. 5A-5B, Table 6) (n=1); primary glioblastoma (FIGS. 5C-5D, Table 7) and recurrent glioblastoma (FIGS. 5E-5F, Table 8) (n=2); metastatic breast adenocarcinoma (FIGS. 5G-5H, Table 9) (n=1); metastatic non-small-cell lung cancer (FIGS. 5I-5J, Table 10) (n=1); and primary central nervous system (CNS) lymphoma (FIGS. 5K-5L, Table 11) (n=1). […] Overall, mass and MAR were measured for 1092 cells with an average of 84 cells measured per condition over 13 conditions tested (FIGS. 1B-1C). […]

[4] = tested on: Lung Met cells; experiment: Sample viability (Live/Dead), lung metastasis; conditions: 100 μM Carbo, 3 days; vehicle 80%
Protocol: as §1

[5] = tested on: CNS Lymphoma cells; experiment: Sample viability (Live/Dead), CNS lymphoma; conditions: 10 nM Ibrutinib, 2 days; vehicle 74%
Protocol: as §1

[6] = tested on: Normal brain cells; experiment: Sample viability (Live/Dead), normal brain; conditions: 250 μM TMZ, 3 days; vehicle 35%
Protocol: as §1

[7] = tested on: Glioblastoma cells; experiment: Sample viability (Live/Dead), glioblastoma; conditions: 250 μM TMZ, 8 days; vehicle 73%
Protocol: as §1

[8] = tested on: glioblastoma multiforme (GBM) patient-derived cell lines (PDCLs); experiment: Single cell mass / MAR assay in patient-derived cell lines; conditions: TMZ compared with DMSO, heterogeneous cohort of PDCLs, FIG. 7A
Protocol: A single cell protocol for monitoring the mass accumulation rate (MAR) in response to chemotherapy (FIGS. 6A-6F). After tumor resection, the tissue is dissociated into single cells (FIG. 6A). The single cells from the dissociated tumor is measured within a week of resection using the mass/MAR of the single cells in response to chemotherapeutic agents (FIG. 6C). In addition to acute sensitivity testing, dissociated tumor cells from patient samples can also be grown long-term into robust cell lines (e.g., patient-derived cell lines, PDCLs), where high throughput experiments can be performed and analyzed relative to a more complete genomic background of the tissue (FIG. 6D). Because this assay is high throughput, the MAR can be measured with more conditions relative to acute patient samples. These PDCLs can be implanted in vivo to allow MAR measurements to be taken ex vivo from treated animals (e.g., mice). Metabolic readouts (e.g., CellTiter-Glo, CTG) and spheroid area analysis (e.g., IncuCyte) were conducted in parallel to the novel single cell MAR assays described herein (FIG. 6E).
Single cell MAR experiments were conducted in both PDCLs and acute patient models (FIGS. 7A-7D). […] The single cell MAR assay detected changes within 24 hours after treatment with a chemotherapeutic (TMZ) compared with DMSO (FIG. 7A).

CCN1CCN(Cc2ccc(Nc3ncc(F)c(-c4cc(F)c5nc(C)n(C(C)C)c5c4)n3)nc2)CC1 [Abemaciclib] was tested, and the “Drug 1 Viability (Live/Dead)” value [1] was 59% and the “Drug 2 Viability (Live/Dead)” value ([2]; 100 nM Abema) was 35%.

With N.N.O=C([O-])C1(C(=O)[O-])CCC1.[Pt+2] [Carboplatin] the “Mass-normalized MAR vs vehicle (in words)” value [3] was “significantly reduced; also recorded: Statistically significant reductions” and the “Drug 1 Viability (Live/Dead)” value [4] was 74%.

With C=CC(=O)N1CCC[C@@H](n2nc(-c3ccc(Oc4ccccc4)cc3)c3c(N)ncnc32)C1 [Ibrutinib] the “Drug 1 Viability (Live/Dead)” value [5] was 65%.

CO[C@H]1C[C@@H]2CC[C@@H](C)[C@@](O)(O2)C(=O)C(=O)N2CCCC[C@H]2C(=O)O[C@H]([C@H](C)C[C@@H]2CC[C@@H](OCCO)[C@H](OC)C2)CC(=O)[C@H](C)/C=C(\C)[C@@H](O)[C@@H](OC)C(=O)[C@H](C)C[C@H](C)/C=C/C=C/C=C/1C [RAD001, everolimus] was tested, and the “Drug 1 Viability (Live/Dead)” value ([2]; 1 nM RAD) was 32%.

Cn1nnc2c(C(N)=O)ncn2c1=O [TMZ, Temozolomide] was tested, and the “Drug 1 Viability (Live/Dead)” value [6] was 30%, the “Drug 1 Viability (Live/Dead)” value [7] was 69% and the “time after treatment at which single cell MAR changes were detected” value [8] was ≤ 24 h.
